From patent US20070155955A1, “Amylin aggregation inhibitors and use thereof” (APPLIED RESEARCH SYSTEMS ARS HOLDING N.V., priority 2003, published 2007) come the findings set out here.

No end group written: not given here.

A short description of the data set: In vitro peptide solubility assay (qualitative, pellet after centrifugation). Format: physicochemical. Particulars: Tris buffer, pH 7.4; read-out: Solubilty. The procedure: Solubility of peptides of the invention was obtained using a qualitative assay where the peptide was dissolved in Tris buffer, pH 7.4 at 1, 5, or 10 mg/ml, vortexed briefly, and then centrifuged at 16,000 g for 30 min.
For NFGAPLS [SEQ ID NO. 11], the solubility is less than 1 mg/mL.

DFGAPL [SEQ ID NO. 2]: the solubility is greater than 10 mg/mL. Regarding NFGAILS [SEQ ID NO. 10], the solubility was less than 0.2 mg/mL. The value for “Ac-DFGAPL-NH2 (N-terminus and C-terminus assumed) [SEQ ID NO. 3]” was greater than 10 mg/mL; that for DFGAPLD [SEQ ID NO. 4] was greater than 10 mg/mL. Regarding DFGAILD [SEQ ID NO. 12], the solubility is no less than 2 mg/mL.
